Results from publication PMC10141580, “Cyclic Dichalcogenides Extend the Reach of Bioreductive Prodrugs to Harness Thiol/Disulfide Oxidoreductases: Applications to seco-Duocarmycins Targeting the Thioredoxin System” (ACS Central Science, 2023).
Like-named read-outs stand apart in the source and are kept apart here.

Tested on: NCI-60 standardized human tumor cell line panel
Assay: cells
Format: cell-based
Settings: for NCI-60 screening: Log(GI50): log10 of GI50 in M; for NCI-60 screening: Log(RedIndex): log10 reductive index vs P-CC60

## COc1cc2cc(C(=O)N3CC(CCl)c4c3cc(OC(=O)N3CCN(C)C5CSSCC53)c3ccccc43)[nH]c2c(OC)c1OC (mixture of isomers) [Me-SS66C-CBI-TMI]
786-0 (RE) cell line
  NCI-60 screening: Log(GI50): -6.71
  NCI-60 screening: Log(RedIndex): 0.94
786-0 (RE) cell line, read-out: NCI-60 screening: Raw GI50
  GI50: 200 nM
786-0, read-out: GI50
  GI50: 200 nM
A498 (RE) cell line
  NCI-60 screening: Log(GI50): -5.91
  NCI-60 screening: Log(RedIndex): 0.35
A498, read-out: GI50
  GI50: 1200 nM
A549/ATCC, read-out: GI50
  GI50: 180 nM
ACHN (RE) cell line
  NCI-60 screening: Log(GI50): -7.55
  NCI-60 screening: Log(RedIndex): 1.24
ACHN (RE) cell line, read-out: NCI-60 screening: Raw GI50
  GI50: 28 nM
ACHN, read-out: GI50
  GI50: 28 nM
BT-549, read-out: GI50
  GI50: 170 nM
CAKI-1 (RE) cell line
  NCI-60 screening: Log(GI50): -6.61
  NCI-60 screening: Log(RedIndex): 0.78
CAKI-1 (RE) cell line, read-out: NCI-60 screening: Raw GI50
  GI50: 250 nM
CAKI-1, read-out: GI50
  GI50: 250 nM
CCRF-CEM, read-out: GI50
  GI50: 110 nM
COLO 205, read-out: GI50
  GI50: 330 nM
DU-145 (PR) cell line
  NCI-60 screening: Log(GI50): -7.2
  NCI-60 screening: Log(RedIndex): 0.86
DU-145, read-out: GI50
  GI50: 63 nM
EKVX, read-out: GI50
  GI50: 230 nM
HCC-2998, read-out: GI50
  GI50: 140 nM
HCT-15, read-out: GI50
  GI50: 250 nM
HCT-116, read-out: GI50
  GI50: 190 nM
HL-60(TB), read-out: GI50
  GI50: 52 nM
HOP-62, read-out: GI50
  GI50: 200 nM
HOP-92, read-out: GI50
  GI50: 240 nM
HT29, read-out: GI50
  GI50: 230 nM
IGROV1 (OV) cell line
  NCI-60 screening: Log(GI50): -5.82
  NCI-60 screening: Log(RedIndex): 0.18
IGROV1, read-out: GI50
  GI50: 1500 nM
K-562, read-out: GI50
  GI50: 400 nM
KM12, read-out: GI50
  GI50: 1100 nM
LOX IMVI, read-out: GI50
  GI50: 170 nM
M14, read-out: GI50
  GI50: 250 nM
MALME-3M, read-out: GI50
  GI50: 210 nM
MCF7, read-out: GI50
  GI50: 28 nM
MDA-MB-435, read-out: GI50
  GI50: 840 nM
MDA-MB-468, read-out: GI50
  GI50: 160 nM
MOLT-4, read-out: GI50
  GI50: 70 nM
NCI-H23, read-out: GI50
  GI50: 45 nM
NCI-H226, read-out: GI50
  GI50: 1000 nM
NCI-H460 (LC) cell line
  NCI-60 screening: Log(GI50): -7.39
  NCI-60 screening: Log(RedIndex): 1.1
NCI-H460, read-out: GI50
  GI50: 41 nM
NCI-H522 (LC) cell line
  NCI-60 screening: Log(GI50): -6.84
  NCI-60 screening: Log(RedIndex): 1.07
NCI-H522 (LC) cell line, read-out: NCI-60 screening: Raw GI50
  GI50: 150 nM
NCI-H522, read-out: GI50
  GI50: 150 nM
OVCAR-3 (OV) cell line
  NCI-60 screening: Log(GI50): -6.31
  NCI-60 screening: Log(RedIndex): 0.63
OVCAR-3, read-out: GI50
  GI50: 490 nM
OVCAR-4 (OV) cell line
  NCI-60 screening: Log(GI50): -5.79
  NCI-60 screening: Log(RedIndex): 0.16
OVCAR-4, read-out: GI50
  GI50: 1600 nM
OVCAR-5 (OV) cell line
  NCI-60 screening: Log(GI50): -6.55
  NCI-60 screening: Log(RedIndex): 1.26
OVCAR-5, read-out: GI50
  GI50: 280 nM
OVCAR-8 (OV) cell line
  NCI-60 screening: Log(GI50): -6.82
  NCI-60 screening: Log(RedIndex): 1.04
OVCAR-8 (OV) cell line, read-out: NCI-60 screening: Raw GI50
  GI50: 150 nM
OVCAR-8, read-out: GI50
  GI50: 150 nM
PC-3 (PR) cell line
  NCI-60 screening: Log(GI50): -6.45
  NCI-60 screening: Log(RedIndex): 0.94
PC-3, read-out: GI50
  GI50: 360 nM
RPMI-8226, read-out: GI50
  GI50: 160 nM
RXF 393 (RE) cell line
  NCI-60 screening: Log(GI50): -6.88
  NCI-60 screening: Log(RedIndex): 0.9
RXF 393 (RE) cell line, read-out: NCI-60 screening: Raw GI50
  GI50: 130 nM
RXF 393, read-out: GI50
  GI50: 130 nM
SF-268, read-out: GI50
  GI50: 170 nM
SF-295, read-out: GI50
  GI50: 130 nM
SF-539, read-out: GI50
  GI50: 170 nM
SK-MEL-5, read-out: GI50
  GI50: 170 nM
SK-MEL-28, read-out: GI50
  GI50: 260 nM
SK-OV-3 (OV) cell line
  NCI-60 screening: Log(GI50): -7.47
  NCI-60 screening: Log(RedIndex): 1.8
SK-OV-3, read-out: GI50
  GI50: 34 nM
SN12C (RE) cell line
  NCI-60 screening: Log(GI50): -6.69
  NCI-60 screening: Log(RedIndex): 0.77
SN12C (RE) cell line, read-out: NCI-60 screening: Raw GI50
  GI50: 200 nM
SN12C, read-out: GI50
  GI50: 200 nM
SNB-19, read-out: GI50
  GI50: 220 nM
SR, read-out: GI50
  GI50: 37 nM
SW-620, read-out: GI50
  GI50: 260 nM
T-47D, read-out: GI50
  GI50: 290 nM
TK-10 (RE) cell line
  NCI-60 screening: Log(GI50): -5.89
  NCI-60 screening: Log(RedIndex): 0.34
TK-10, read-out: GI50
  GI50: 1300 nM
